Assay results from the supplement of paper PMC10307832.

Columns and labels:
Experiment in all cases: relative viability (nuclei count vs DMSO), 5 days (fraction); higher = more cells survive
Afatinib + Navitoclax = compound: CN(C)C/C=C/C(=O)Nc1cc2c(Nc3ccc(F)c(Cl)c3)ncnc2cc1O[C@H]1CCOC1 [Afatinib] + CC1(C)CCC(c2ccc(Cl)cc2)=C(CN2CCN(c3ccc(C(=O)NS(=O)(=O)c4ccc(N[C@H](CCN5CCOCC5)CSc5ccccc5)c(S(=O)(=O)C(F)(F)F)c4)cc3)CC2)C1 [Navitoclax] (partner 0.5 µM)
Summary of the method: (§1)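 Relative viability is defined as nuclei in treated wells over nuclei in vehicle wells. Duplicate plates were run and medians reported. Lung cancer cell lines in 1536-well plates were dosed by pin tool one day after seeding, with one drug or with a fixed anchor-drug dose plus five library-drug doses (not always all listed) in √10 steps, and nuclei were counted after 5 days.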

Afatinib + Linsitinib = compound: CN(C)C/C=C/C(=O)Nc1cc2c(Nc3ccc(F)c(Cl)c3)ncnc2cc1O[C@H]1CCOC1 [Afatinib] + C[C@]1(O)C[C@@H](c2nc(-c3ccc4ccc(-c5ccccc5)nc4c3)c3c(N)nccn32)C1 [Linsitinib] (partner 1 µM)
Summary of the method: as §1

Afatinib + Foretinib = compound: CN(C)C/C=C/C(=O)Nc1cc2c(Nc3ccc(F)c(Cl)c3)ncnc2cc1O[C@H]1CCOC1 [Afatinib] + COc1cc2c(Oc3ccc(NC(=O)C4(C(=O)Nc5ccc(F)cc5)CC4)cc3F)ccnc2cc1OCCCN1CCOCC1 [Foretinib] (partner 0.25 µM)
Summary of the method: as §1

Afatinib + Luminespib = compound: CN(C)C/C=C/C(=O)Nc1cc2c(Nc3ccc(F)c(Cl)c3)ncnc2cc1O[C@H]1CCOC1 [Afatinib] + CCNC(=O)c1noc(-c2cc(C(C)C)c(O)cc2O)c1-c1ccc(CN2CCOCC2)cc1 [Luminespib] (partner 0.01 µM)
Summary of the method: as §1

| Cell Line | relative viability (Afatinib + Navitoclax; first compound 0.005 µM) | relative viability (Afatinib + Navitoclax; first compound 0.01581 µM) | relative viability (Afatinib + Navitoclax; first compound 0.05 µM) | relative viability (Afatinib + Navitoclax; first compound 0.1581 µM) | relative viability (Afatinib + Navitoclax; first compound 0.5 µM) | relative viability (Afatinib + Linsitinib; first compound 0.005 µM) | relative viability (Afatinib + Linsitinib; first compound 0.01581 µM) | relative viability (Afatinib + Linsitinib; first compound 0.05 µM) | relative viability (Afatinib + Linsitinib; first compound 0.1581 µM) | relative viability (Afatinib + Linsitinib; first compound 0.5 µM) | relative viability (Afatinib + Foretinib; first compound 0.005 µM) | relative viability (Afatinib + Foretinib; first compound 0.01581 µM) | relative viability (Afatinib + Foretinib; first compound 0.05 µM) | relative viability (Afatinib + Foretinib; first compound 0.1581 µM) | relative viability (Afatinib + Foretinib; first compound 0.5 µM) | relative viability (Afatinib + Luminespib; first compound 0.005 µM) | relative viability (Afatinib + Luminespib; first compound 0.01581 µM) | relative viability (Afatinib + Luminespib; first compound 0.05 µM) | relative viability (Afatinib + Luminespib; first compound 0.1581 µM) | relative viability (Afatinib + Luminespib; first compound 0.5 µM) |
| --- | --- | --- | --- | --- | --- | --- | --- | --- | --- | --- | --- | --- | --- | --- | --- | --- | --- | --- | --- | --- |
| HCC-78 | 0.776 | 0.76 | 0.62 | 0.636 | 0.679 | 0.53 | 0.482 | 0.436 | 0.413 | 0.395 | 0.549 | 0.568 | 0.405 | 0.324 | 0.386 | – | – | – | – | – |
| HCC-366 | 1.14 | 1.04 | 1.18 | 1 | 1.06 | 0.764 | 0.669 | 0.56 | 0.541 | 0.618 | 0.916 | 0.949 | 0.868 | 0.937 | 0.914 | – | – | – | – | – |
| HCC-827 | 0.173 | 0.168 | 0.157 | 0.18 | 0.147 | 0.202 | 0.163 | 0.18 | 0.172 | 0.176 | 0.135 | 0.166 | 0.162 | 0.147 | 0.163 | 0.228 | 0.133 | 0.227 | 0.169 | 0.148 |
| HOP-62 | 1.3 | 1.09 | 1.19 | 1.11 | 1.09 | 1.03 | 1.13 | 1.2 | 1.03 | 1.04 | 1.18 | 1.23 | 1.18 | 1.14 | 1.1 | 1.04 | 0.977 | 0.968 | 0.994 | 0.89 |
| IA-LM | 0.689 | 0.821 | 0.906 | 0.796 | 0.933 | 0.67 | 0.713 | 0.502 | 0.571 | 0.601 | 1.47 | 1.13 | 1.2 | 1.03 | 1.07 | – | – | – | – | – |
| LC-2-ad | 0.483 | 0.458 | 0.419 | 0.322 | 0.32 | 0.935 | 0.817 | 0.794 | 0.696 | 0.682 | 0.815 | 0.718 | 0.565 | 0.565 | 0.6 | 1.01 | 1.05 | 1.13 | 1.08 | 1.05 |
| LCLC-97TM1 | 0.383 | 0.546 | 0.411 | 0.344 | 0.455 | 0.176 | 0.179 | 0.167 | 0.156 | 0.205 | 1 | 0.906 | 0.894 | 0.808 | 0.907 | 0.785 | 0.862 | 0.708 | 0.722 | 0.68 |
| LCLC-103H | – | – | – | – | – | 1.09 | 0.943 | 1.02 | 0.99 | 0.99 | 0.832 | 0.814 | 0.734 | 0.834 | 0.846 | 0.779 | 1.04 | 0.968 | 0.784 | 0.917 |
| LK-2 | 1.02 | 0.779 | 0.868 | 0.883 | 0.835 | 0.6 | 0.589 | 0.742 | 0.478 | 0.666 | 0.994 | 1.13 | 0.851 | 1.06 | 0.997 | 0.191 | 0.185 | 0.185 | 0.188 | 0.192 |
